Measurements from patent publication US6051406A, “Keratan sulfate 6-sulfotransferase and DNA coding for the same” (Seikagaku Kogyo Kabushiki Kaish, priority 1996, dated 2000).

Experiments:
[1] = test system: crude extract of COS-7 cells with pCXNKSST introduced; experiment: Sulfotransferase activity for various glycosaminoglycan receptors, crude extract (Reaction Mixture II); type: biochemical; conditions: 25 nmol glycosaminoglycan as receptor
Protocol: (§1) Activity for various kinds of glycosaminoglycans as the substrate was assayed by using 25 nmol (as galactosamine for chondroitin sulfate (A and C) and dermatan sulfate, and as glucosamine for keratan sulfate and CDSNS-heparin (completely desulfated, N-sulfated heparin, available from Seikagaku Corp.)) of glycosaminoglycan instead of keratan sulfate.
(§2) In the above both cases, the reaction mixtures were incubated at 37° C. for 20 minutes, and the reaction was stopped by immersing reaction tubes into boiling water for one minute.
(§3) After stopping the reaction, 0.1 μmol (as glucuronic acid) of chondroitin sulfate A was added as a carrier, and 3 volumes of ethanol containing 1.3% potassium acetate was added to the reaction mixture to precipitate ^35 S-labeled polysaccharide. The reaction mixture was centrifuged at 10,000×g for 10 minutes, and the resulting precipitates were dissolved in 70 μl of water. The resulting solution (50 μl) was loaded on a desalting column equilibrated with 0.1 M NH4 HCO3, and the eluted fractions containing the ^35 S-labeled polysaccharide were collected. Scintillation cocktail (1 ml, Clearsol, Nakarai Tesque) was added to 200 μl of each of the obtained fractions, and incorporation of ^35 S into the polysaccharide was determined by assaying ^35 S-radioactivity. Activity catalyzing transfer of 1 pmol sulfate group/minute was defined as 1 unit.
(§4) The adsorbed fraction was eluted with Buffer A containing 0.5 M NaCl, and the eluate was dialyzed against Buffer A containing 50 mM NaCl. The dialysate was used as KSST not containing CST. […] For the activity assay, 25 nmol (as galactosamine for chondroitin, chondroitin sulfate A, chondroitin sulfate C and dermatan sulfate, and as glucosamine for keratan sulfate and CDSNS-heparin) of glycosaminoglycan was used instead of the keratan sulfate contained in the standard reaction mixture.

[2] = target: T1, partially purified KSST (KSGal6ST) (Homo sapiens, UniProt O43916); experiment: Sulfotransferase activity for various glycosaminoglycan receptors, partially purified KSST (Reaction Mixture II); type: biochemical; parameters: made in house; host or cells: COS-7 cells transfected with pCXNKSST (pCXN2 vector); extract partially purified over DEAE-Sephadex A-50 (non-adsorbed fraction) and Heparin-Sepharose CL-6B; conditions: for Sulfotransferase activity, Partially purified product: 25 nmol glycosaminoglycan as receptor, Reaction Mixture II, after Heparin-Sepharose CL-6B; for sulfotransferase activity for this receptor relative to keratan sulfate sulfotransferase activity after the purification: partially purified product
T1 sequence (O43916 1-411): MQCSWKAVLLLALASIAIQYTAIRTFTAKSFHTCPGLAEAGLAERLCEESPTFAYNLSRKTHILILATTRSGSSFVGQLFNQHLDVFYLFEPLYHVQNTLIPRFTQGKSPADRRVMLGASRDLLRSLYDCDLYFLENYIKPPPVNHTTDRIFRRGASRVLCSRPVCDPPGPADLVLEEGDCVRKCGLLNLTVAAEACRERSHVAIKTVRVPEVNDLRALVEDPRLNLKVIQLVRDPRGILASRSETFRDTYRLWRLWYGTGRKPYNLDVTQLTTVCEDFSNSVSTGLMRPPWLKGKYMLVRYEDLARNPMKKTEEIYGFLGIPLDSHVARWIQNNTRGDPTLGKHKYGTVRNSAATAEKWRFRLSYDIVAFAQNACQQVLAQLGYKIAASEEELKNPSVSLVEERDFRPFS
Protocol: as §1, §2, §3
Homogenate of COS-7 cells with pCXNKSST introduced from 80 dishes (224 mg as protein) was applied to a DEAE-Sephadex A-50 column (Pharmacia, 2.2×13 cm) equilibrated with Buffer A. The column was washed with 500 ml of Buffer A , and then the adsorbed fraction was eluted with Buffer A containing 0.5 M NaCl.
as §4

[3] = target: T1, partially purified KSST (KSGal6ST); experiment: Effect of added salts and dithiothreitol on KSST activity (Reaction Mixture II); type: biochemical; parameters: made in house; host or cells: COS-7 cells transfected with pCXNKSST (pCXN2 vector); extract partially purified over DEAE-Sephadex A-50 (non-adsorbed fraction) and Heparin-Sepharose CL-6B; conditions: for Sulfotransferase activity with added salt: salt at final concentration of 5 mM instead of CaCl2, keratan sulfate receptor, Reaction Mixture II
Protocol: (§5) Characterization of the KSST partially purified as described above was performed.

[4] = test system: sulfotransferase activity; experiment: Sulfotransferase activity of pCXNKSST-transfected COS-7 cells with other sulfate group receptors; type: cell-based; conditions: COS-7 cells with KSST cDNA in the correct direction, substance used as sulfate group receptor
Text: This cDNA was introduced into a plasmid (pCXN2) (a recombinant plasmid where the direction of the promoter is conformed with that of the cDNA was designated as pCXNKSST, and recombinant plasmid where the cDNA was inserted in a reversed direction was designated as pCXNKSST2), and COS-7 cells were transfected with the obtained plasmids by the method described above. […] When dermatan sulfate, heparan sulfate, or completely desulfated, N-sulfated heparin (CDSNS-heparin) was used as the sulfate group receptor, no increase of sulfotransferase activity was observed.

[5] = target: T1, partially purified KSST (KSGal6ST); conditions: read-out: Km value for PAPS (sulfate group donor)
Protocol: as §5

[6] = substrate: Nc1ncnc2c1ncn2[C@@H]1O[C@H](COP(=O)(O)OS(=O)(=O)O)[C@@H](OP(=O)(O)O)[C@H]1O; experiment: purified protein, by the assay type

## Keratan sulfate
[1]
  Sulfotransferase activity, Crude extract: 0.168 pmol/minute/mg protein × 10^-2
[2]
  Sulfotransferase activity, Partially purified product: 2.51 pmol/minute/mg protein × 10^-2

## [Cl][Mn][Cl] [MnCl2]
[3]
  Sulfotransferase activity with added salt: 28.0 pmol/minute/mg protein
[3]; salts at 5 mM
  effect on KSST activity: most strongly enhanced the KSST activity

## Chondroitin sulfate C
[1]
  Sulfotransferase activity, Crude extract: 0.005 pmol/minute/mg protein × 10^-2
[2]
  Sulfotransferase activity, Partially purified product: 0.02 pmol/minute/mg protein × 10^-2

## Dermatan sulfate
[1]
  Sulfotransferase activity, Crude extract: 0.005 pmol/minute/mg protein × 10^-2
[4]
  increase of sulfotransferase activity with this sulfate group receptor: no increase
[2]
  Sulfotransferase activity, Partially purified product: 0.02 pmol/minute/mg protein × 10^-2

## [Cl][Cu][Cl] [CuCl2]
[3]
  Sulfotransferase activity with added salt: 10.0 pmol/minute/mg protein

## O=S(=O)([O-])[O-].[Fe+2] [FeSO4]
[3]
  Sulfotransferase activity with added salt: 3.0 pmol/minute/mg protein

## [Cl-].[Cl-].[Co+2] [CoCl2]
[3]
  Sulfotransferase activity with added salt: 24.6 pmol/minute/mg protein

## [Cl-].[Cl-].[Mg+2] [MgCl2]
[3]
  Sulfotransferase activity with added salt: 18.8 pmol/minute/mg protein

## [Cl-].[Cl-].[Zn+2] [ZnCl2]
[3]
  Sulfotransferase activity with added salt: 1.5 pmol/minute/mg protein

## Chondroitin sulfate A
[1]
  Sulfotransferase activity, Crude extract: 0.009 pmol/minute/mg protein × 10^-2
[2]
  Sulfotransferase activity, Partially purified product: 0.03 pmol/minute/mg protein × 10^-2

## [Ba+2].[Cl-].[Cl-] [BaCl2]
[3]
  Sulfotransferase activity with added salt: 21.0 pmol/minute/mg protein

## heparan sulfate
[4]
  increase of sulfotransferase activity with this sulfate group receptor: no increase

## completely desulfated, N-sulfated heparin [CDSNS-heparin]
[1]
  Sulfotransferase activity, Crude extract: 0.109 pmol/minute/mg protein × 10^-2
[4]
  increase of sulfotransferase activity with this sulfate group receptor: no increase
[2]
  Sulfotransferase activity, Partially purified product: 0.05 pmol/minute/mg protein × 10^-2
  sulfotransferase activity for this receptor relative to keratan sulfate sulfotransferase activity after the purification: ≤ 2%

## [Cl-].[Cl-].[Sr+2] [SrCl2]
[3]
  Sulfotransferase activity with added salt: 21.6 pmol/minute/mg protein

## Chondroitin
[1]
  Sulfotransferase activity, Crude extract: 0.016 pmol/minute/mg protein × 10^-2
[2]
  Sulfotransferase activity, Partially purified product: 0.03 pmol/minute/mg protein × 10^-2
  sulfotransferase activity for this receptor relative to keratan sulfate sulfotransferase activity after the purification: ≤ 2%

## [Cl][Ni][Cl] [NiCl2]
[3]
  Sulfotransferase activity with added salt: 10.0 pmol/minute/mg protein

## O[C@H](CS)[C@H](O)CS (racemic) [Dithiothreitol]
[3]; concentration up to 10 mM
  effect on KSST activity: did not affect the KSST activity

## Nc1ncnc2c1ncn2[C@@H]1O[C@H](COP(=O)(O)OS(=O)(=O)O)[C@@H](OP(=O)(O)O)[C@H]1O [PAPS, 3'-phosphoadenosine 5'-phosphosulfate]
[5]
  Km: ~0.2 µM

## [Ca+2].[Cl-].[Cl-] [CaCl2]
[3]
  optimum concentration for KSST activity: about 10 mM
  Sulfotransferase activity with added salt: 26.2 pmol/minute/mg protein
[3]; salts at 5 mM
  effect on KSST activity: most strongly enhanced the KSST activity

## Protamine Chloride
[3]
  Sulfotransferase activity with added salt: 8.8 pmol/minute/mg protein

B1: partially purified KSST (KSGal6ST) (Homo sapiens) (protein)
chain: T1 sequence (O43916 1-411)
[6]
  Km: 0.2 µM
